Source: patent US20090099102A1, “Ginkgolides in the Treatment and Prevention of Ovarian Cancer” (priority 2005, published 2009)
“Also recorded” adds a separate entry of the source.

What was measured:
OVCA429 cells [1] = assay: Cell proliferation (MTT) assay, serous cancer cells OVCA429; type: cell-based, human; conditions: for cell proliferation compared to the control treatments: p<0.0001; for inhibitory pattern in ovarian cancer cells (discussion): cell line not given
Description: (§1) Immortalized normal human ovary epithelial cell (HOSEE6E7) and a serous type ovarian cancer cell lines (OVCA433) previously established in our laboratory (Tsao, et al., Exp. Cell Res. 218:499-507 (1995); Kim, et al., Jama 287:1671-1679 (2002)) were used in this study. Two mucinous ovarian cancer cell lines (RMUG-S and RMUG-L) were purchased from The Japanese Collection of Research Bioresource (Tokyo, Japan). RMUG-L cells were cultured in MCDB105/M199 medium as above, and RMUG-S cells were cultured in F-12 medium with 10% Fetal Bovine Serum and 1% antibiotic as above. Cells were maintained at 37° C. under 5% CO2 and 95% air in a high humidity chamber. Monolayer cells at 60-80% confluence were enzymatically removed using trypsin/EDTA and plated in 96 well flat-bottomed plates at concentration of 5×10^3 per well for HOSE-E6E7 cells, 1×10^3 per well for OVCA429 and RMUG-L, respectively. Treatments were added 24 hours after plating. Ten mM stock solutions of Ginkgo biloba, quercetin, kaempferol, ginkgolide A, and ginkgolide B, were prepared in DMSO and cells were treated with 10, 50 and 100 μM concentrations of each component. Concentration of standard Ginkgo biloba treatment was calibrated according to the fact that, the standard Ginkgo biloba mixture contains about 4-6% of total active terpene lactons, and the estimated average of the molecular weight of the mixture is about 300. An equal volume of DMSO (less than <1% concentration) was used as control treatment.
(§2) Methods for the cell proliferation and viability assays were adopted from MTT (Mosmann, J. Immunol. Methods 65:55-63 (1983), XTT (Scudiero et al., Cancer Res. 48:4827-4833, (1988)) and MTS (Cory, et al., Cancer Commun. 3: 207-212 (1991)), which developed as WST-1 (Roche Applied Science, Germany). Briefly, the tetrazolium salts are cleaved to formazan by cellular enzymes. An expansion in the number of viable cells results in an increase in the overall activity of mitochondrial dehydrogenases in the sample. This augmentation in enzyme activity leads to an increase in the amount of formazan dye formed, which directly correlates with the number of metabolically active cells in the culture. After 72 hours of treatment, 15 μl of the MTT dye solution was added to each well and the plates were incubated at 37° C. for 4 hours in a humidified chamber. After incubation, 100 μl of the Solubilization/Stop solution was added to each well. One hour after the addition of the solubilization solution, the contents of the wells were mixed and read by the 96-well plate scanning spectrophotometer (μQuant) and quantitative software (KC-junior, Bio-Tek Instruments, Inc.) at an absorbance of 630 nm for quantitative analysis. Data was collected from at least 3 separate experiments, and at least 8 repeats were performed for each individual treatment. The cell proliferation rate was expressed as a percentage of the control, which had been treated with an equivalent volume of DMSO (as 100%).
Logistic regression analysis was used to calculate the exposure odds ratio to estimate the relative risk (RR) for ovarian cancer associated with the use of any or a particular type of herbal remedy. Adjustment variables included age, study center, oral contraceptive (OC) use, parity, and Jewish ethnic background. Additionally, we adjusted individually for categories of consumption of vitamin A, carotene, tomatoes and tomato sauce and juice, and raw carrots based upon previous work showing the importance of these foods and vitamins on ovarian cancer risk in our data (Cramer, et al., Int. J. Cancer 94:128-134 (2001)). For the data from the cell proliferation assay, linear regression models were applied to analyze mean OD values from the MTT assays across the different concentration treatments, adjusted for individual experiments. We used a partial F test to determine whether mean OD levels varied across the four concentrations (control, 10, 50, 100 μM). […]

HOSE-E6E7 cells [2] = assay: Cell proliferation (MTT) assay, HOSE-E6E7 cells; type: cell-based, human; conditions: 10, 50 and 100 μM (extract: equivalent of ginkgolides), 72 h
Description: Immortalized normal human ovary epithelial cell (HOSEE6E7) and a serous type ovarian cancer cell lines ([…]) previously established in our laboratory (Tsao, et al., Exp. Cell Res. 218:499-507 (1995); Kim, et al., Jama 287:1671-1679 (2002)) were used in this study. Two mucinous ovarian cancer cell lines (RMUG-S and RMUG-L) were purchased from The Japanese Collection of Research Bioresource (Tokyo, Japan). RMUG-L cells were cultured in MCDB105/M199 medium as above, and RMUG-S cells were cultured in F-12 medium with 10% Fetal Bovine Serum and 1% antibiotic as above. Cells were maintained at 37° C. under 5% CO2 and 95% air in a high humidity chamber. Monolayer cells at 60-80% confluence were enzymatically removed using trypsin/EDTA and plated in 96 well flat-bottomed plates at concentration of 5×10^3 per well for HOSE-E6E7 cells, 1×10^3 per well for OVCA429 and RMUG-L, respectively. Treatments were added 24 hours after plating. […]
as §2, with “After 72 hours of treatment, 15 μl of the MTT dye solution was added to each well and the plates were incubated at 37° C. for 4 hours in a humidified chamber. After incubation, 100 μl of the Solubilization/Stop solution was added to each well.” left out, “Data was collected from at least 3 separate experiments, and at least 8 repeats were performed for each individual treatment.” left out, “100%). […]” for “100%).”

RMUG-L cells [3] = assay: Cell proliferation (MTT) assay, mucinous cancer cells RMUG-L; type: cell-based, human; conditions: 10, 50 and 100 μM (extract: equivalent of ginkgolides), 72 h
Description: as §1, §2
Logistic regression analysis was used to calculate the exposure odds ratio to estimate the relative risk (RR) for ovarian cancer associated with the use of any or a particular type of herbal remedy. Adjustment variables included age, study center, oral contraceptive (OC) use, parity, and Jewish ethnic background. […]

OVCA429 cells [4] = assay: Cell cycle analysis (propidium iodide flow cytometry), OVCA429; type: cell-based, human; conditions: for S-phase DNA contents / G0/G1 phase DNA: OVCA429, 100 μM; for cell cycle effect: serous type cancer cells
Description: (§3) For the cell cycle analysis, ovarian cells were plated in 75 cm^2 flasks and treated with 100 μM of ginkgolide A and B; the control was treated with an equal amount of DMSO. After 24 and 48 hours, cells were harvested by trypsin digestion and followed by PBS washing and spun for 5 min at room temperature at 12,000 rpm. Cells were fixed with 70% ethanol (in PBS buffer) by suspending the cell pellet and incubated at room temperature for 5 minutes or at −20° C. for two days. The fixed cells were washed once with PBS and then treated with RNase A (50 ug/ml) at 37° C. for 30-60 min. After a single washing with PBS to remove RNase A, propidium iodide (25 μg/ml in PBS buffer) was added. Cells were subjected to analysis using a FACS Calibur Flow Cytometer (Becton Dickson, San Jose, Calif.). Each experiment was repeated at least three times and the cell cycle profiles and data were analyzed by ModFit LT software (Verity Software House, Inc., Topsham, Me.).

HOSE-E6E7 cells [5] = assay: Cell cycle analysis, HOSE-E6E7; type: cell-based, human; conditions: 100 μM, 24 h
Description: as §3

[6] = 10 young healthy volunteers; single oral dose of 80 mg Ginkgo biloba (EGb 761 formula); cited from earlier work
RMUG-L cells [7] = assay: Cell cycle analysis, RMUG-L; type: cell-based, human; conditions: 48 h
Description: as §3

RMUG-S cells = assay: Cell cycle analysis, RMUG-S; type: cell-based, human; conditions: after treatment
Description: as §3

smooth muscle cell = conditions: related to G1 to S phase blockage; cited from earlier work
[8] = 48 h, control 43% (ginkgolide B), 36.5% (ginkgolide A)
[9] = 48 h, control 47.9% (ginkgolide B), 50.7% (ginkgolide A)

In the case of `C[C@@H]1C(=O)O[C@H]2C[C@@]34[C@H]5C[C@@H](C(C)(C)C)[C@]36[C@@H](OC(=O)[C@@H]6O)O[C@@]4(C(=O)O5)[C@]21O` [ginkgolide A], the “cell proliferation compared to the control treatments” value (OVCA429 cells [1]; OVCA429, 50 and 100 μM, 72 h) is reported as “about 60%”, the “inhibitory pattern in ovarian cancer cells (discussion)” value (“inhibitory pattern” below) (OVCA429 cells [1]) is reported as “significant inhibitory pattern” and the “effect on cell proliferation (words)” value (HOSE-E6E7 cells [2]) is reported as “little effect”. For the same compound, the “effect on cell proliferation (words)” value (RMUG-L cells [3]) was “no effect”, the “effect on cell proliferation (words)” value (RMUG-L cells [3]; listed as Ginkgolide A) was “little effect” and the “S-phase DNA contents” value (OVCA429 cells [4]; [8]) was 10.3%. For the same compound, the “G0/G1 phase DNA” value (OVCA429 cells [4]; [9]) was 86.1%, the “cell cycle effect” value (OVCA429 cells [4]) was “cell cycle blockage at G0/G1 to S phase checking point” and the “effect on DNA content of G0/G1, S and G2/M phases” value (HOSE-E6E7 cells [5]) was “neither ginkgolide A nor ginkgolide B (100 μM) showed a significant effect”. The average concentration measured [6] was 15 ng/mL.
In the case of `CC1C(=O)OC2C(O)C34C5CC(C(C)(C)C)C36C(OC(=O)C6O)OC4(C(=O)O5)C12O` (stereo not shown) [ginkgolide B], the “cell proliferation compared to the control treatments” value (OVCA429 cells [1]; OVCA429, 10, 50 and 100 μM, 72 h) is reported as “about 60%”, the “inhibitory pattern” value (OVCA429 cells [1]) is reported as “significant inhibitory pattern” and the “effect on cell proliferation (words)” value (HOSE-E6E7 cells [2]) is reported as “little effect”. For the same compound, the “effect on cell proliferation (words)” value (RMUG-L cells [3]) was “little effect; also recorded: no effect”, the “S-phase DNA contents” value (OVCA429 cells [4]; 24 h, control 43%) was 35.8% and the “G0/G1 phase DNA” value (OVCA429 cells [4]; 24 h, control 47.9%) was 51.5%. The “S-phase DNA contents” value (OVCA429 cells [4]; [8]) was 24%, the “G0/G1 phase DNA” value (OVCA429 cells [4]; [9]) was 65.1% and the “cell cycle effect” value (OVCA429 cells [4]) was “cell cycle blockage at G0/G1 to S phase checking point”. For the same compound, the “effect on DNA content of G0/G1, S and G2/M phases” value (HOSE-E6E7 cells [5]) was “neither ginkgolide A nor ginkgolide B (100 μM) showed a significant effect”, the “S-phase DNA” value (RMUG-L cells [7]; control 28.7%) was 40.9% and the “G0/G1 phase DNA” value (RMUG-L cells [7]; control 57%) was 44%. The “changes in G0/G1, S-phase and M-phase DNA distribution” value (RMUG-S cells) was “no observed changes”, the average concentration measured [6] was 4 ng/mL and the “inhibition of smooth muscle cell proliferation” value (smooth muscle cell) was “inhibit smooth muscle cell proliferation in a concentration dependent manner”.
In the case of `O=c1c(O)c(-c2ccc(O)cc2)oc2cc(O)cc(O)c12` [kaempferol, reference compound], the “effect on cell proliferation (words)” value (OVCA429 cells [1]; OVCA429, 10, 50 and 100 μM (extract: equivalent of ginkgolides), 72 h) is reported as “little effect” and the “effect on cell proliferation (words)” value (RMUG-L cells [3]) is reported as “little effect”.
With `O=c1c(O)c(-c2ccc(O)c(O)c2)oc2cc(O)cc(O)c12` [quercetin, reference compound] the “effect on cell proliferation, exception to 'little effect'” value (OVCA429 cells [1]; OVCA429, 50 and 100 μM) was “OVCA429 with 50 and 100 μM quercetin”, the “inhibitory pattern” value (OVCA429 cells [1]) was “significant inhibitory pattern” and the “effect on cell proliferation (words)” value (HOSE-E6E7 cells [2]) was “little effect”. The “effect on cell proliferation (words)” value (RMUG-L cells [3]) was “little effect”.
